From patent US9163032B2, “Esters of DCPLA and methods of treatment using the same” (Blanchette Rockefeller Neurosciences Institute, priority 2011, dated 2015)
Where “and” joins values, the source holds several entries; their conditions need not be identical. Equal entries are not always repeated.

Experiments:
[1] = system: cultured primary rat hippocampal neurons; assay: Neuroprotection against ASPD induced toxicity, MTT assay, primary neurons; format: cell-based; conditions: 50 nM ASPD, 20 hr, activator 0.27 nM
Protocol: (§1) Viability of cells was measured by MTT assay. MTT (i.e., 3-(4,5-dimethylthiazol-2-yl)-2,5-diphenyltetrazolium bromide) is a tetrazolium salt that is cleaved to formazan by the succinate dehydrogenase, which is only active in viable cells. After solubilization of the formazan, the amount of dye can be quantified with a microplate reader at 570 nm along with a reference of 630 nm. For the MTT assay, 5×10^4 primary rat hippocampal neurons from 18-day-old embryonic Sprague-Dawley rat brains or SH-SY5Y cells were plated on each well of 24-well plates coated with poly-D-lysine. After treatment, the cells were washed with 1× PBS and were incubated with 200 μl of 1 mg/ml MTT solution (Sigma, USA) at 37° C. for 2 hr. Then the MTT-solution was removed and the cells were lysed with 200 μl isopropanol containing 0.04 M HCl and […] for 10 min. Finally, the reading was taken at 570 nm and 630 nm. All the samples were done in triplicate and the data were represented as the percentage of control.
Bryostatin 1, DCPLA, and DCPLA-ME were tested against ASPD-induced cytotoxicity to determine their neuroprotective efficacy.

[2] = system: Phosphatidylserine (C2) Binding Site; assay: 3H-DCPLA-ME binding to rat brain slices with C1 and C2 competitors (film-autoradiography); conditions: rat brain slices
Protocol: To determine the binding site of DCPLA-ME, ^3H-DCPLA-ME was incubated with rat brain slices in the absence and presence of known C1 and C2 competitors. More specifically, rat brain sections were fixed with formaldehyde, sliced, and incubated with (1)^3H-DCPLA-ME alone; (2)^3H-DCPLA-ME with DCPLA; (3)^3H-DCPLA-ME with Phorbol ester; or (4)^3H-DCPLA-ME and Bryostatin 1. After incubation, the slices were washed with a buffer made of 130 mM NaCl, 5 mM MgCl, 5 mM KCl, 1 mM EGTA, and 0.1% bovine serum albumin in 10 mM HEPES-NaOH, pH 7.4, dried, and analyzed with film-autoradiography.

[3] = system: primary human cortical neurons; assay: 40 day culture of human primary cortical neurons: survival, synapses, branching; format: cell-based; conditions: 0.27 nM
Protocol: To examine the effects of PKC-ε activation, cultured human cortical neurons in serum-free artificial medium were exposed to 100 nM DCPLA-ME added every three days, along with 50% medium replacement, for 40 days. More specifically, human primary cortical neurons were grown in Neuronal Medium (ScienCell Cat No#1521) containing neuronal growth supplement (NGS) (Sciencell Cat No#1562).
Cells were plated on poly-l-lysine (0.001%) coated plates at a density of >10000 cells/cm2. Half of the media was replaced by new media every 3 days. DCPLA-ME was dissolved in 100% ethanol and added at 100 nM final concentration. Fresh DCPLA-ME (100 nM) was added every 3 days during media change. The experiments were continued for 40 days.
Human primary neurons (ScienCell Research Laboratories, USA) were thawed and plated on poly-L-lysine coated plates at a density of 10,000 cells per cm^2 and were maintained in neuronal medium (DMEM+high glucose+neuronal growth supplement, ScienCell Research Laboratories, USA) following the recommended method. Primary human neurons were then treated with either DCPLA-ME (100 nM) or bryostatin 1 (0.27 nM) for 40 days. Fresh drug was added every third day with 50% media change.

PKC-ε = PKC-ε translocation to membrane in SH-SY5Y neuroblastoma cells (Western Blot); format: cell-based, human; conditions: 1 μM (20-fold higher than ASPD), relative to control
Protocol: (§2) Cells were harvested in homogenizing buffer containing 10 mM Tris-Cl (pH 7.4), 1 mM PMSF (phenylmethylsulfonyl fluoride), 1 mM EGTA, 1 mM EDTA, 50 mM NaF, and 20 μM leupeptin, and were lysed by sonication. The homogenate was centrifuged at 100,000×g for 15 min at 4° C. to obtain the cytosolic fraction (supernatant) and membrane (pellet). The pellet was resuspended in the homogenizing buffer by sonication. For whole cell protein isolation from primary neurons, the homogenizing buffer contained 1% Triton X-100. Protein concentration was measured using the Coomassie Plus (Bradford) Protein Assay kit (Pierce, USA). Following quantification, 20 μg of protein from each sample was subjected to SDS-PAGE analysis in a 4-20% gradient Tris-Glycine gel (Invitrogen, USA). The separated protein was then transferred to a nitrocellulose membrane. The membrane was blocked with 5% BSA at room temperature for 15 min and was incubated with primary antibody overnight at 4° C. After the incubation, it was washed three times with TBS-T (Tris Buffered Saline-Tween 20) and further incubated with alkaline phosphatase conjugated secondary antibody (Jackson Immunoresearch Laboratories, USA) at 1:10000 dilution for 45 min. The membrane was finally washed three times with TBS-T and developed using the 1-step NBT-BCIP substrate (Pierce, USA). The blot was imaged in an ImageQuant RT-ECL (GE Life Sciences, Piscataway, N.J.) and densitometric quantification was performed using IMAL software (Blanchette Rockefeller Neurosciences Institute, Morgantown, W. Va.). For translocation assays, PKC activation was represented as the percentage of total protein in the membrane (membrane/cytosol+membrane).

synaptophysin = assay: Synaptophysin expression in primary hippocampal neurons (immunofluorescence, Western Blot); format: cell-based, rat; conditions: 1 μM, 20 hr
Protocol: (§3) Cells were grown in two chambered slides (Nunc, USA) at low density. For immunofluorescence staining, the cells were washed with PBS (pH 7.4) and fixed with 4% paraformaldehyde for 4 min. Following fixation, the cells were blocked and permeabilized with 5% serum and 0.3% Triton X-100 in 1×PBS for 30 min. Cells were washed three times with 1×PBS and incubated with primary antibodies for 1 hr at 1:100 dilution. After the incubation, the slides were again washed three times in 1×PBS and were incubated with the FITC anti-mouse IgG and Rhodamine anti-rabbit IgG for 1 hr at 1:400 dilution. The cells were further washed and stained with DAPI (4′,6-diamidino-2′-phenylindole, dihydrochloride) (Thermo Scientific, USA) to stain the nucleus. Finally, the slides were washed and mounted in Pro Long Gold antifade mounting solution (Invitrogen, USA) and were viewed under a LSM 710 Meta confocal microscope (Zeiss) at 350 nm, 490 nm, and 540 nm excitation and 470 nm, 525 nm, and 625 nm emission for DAPI, FITC, and Rhodamine respectively. Six individual fields at 63× oil lens magnification were analyzed for the mean fluorescence intensity (MFI) in each channel.
as §2
(§4) To estimate the synaptic damage caused by the ASPDs on primary hippocampal neurons, the expression of synaptophysin (a presynaptic marker) and PSD-95 (a postsynaptic marker) was measured by immunofluorescence staining. […] Following a 20 hr incubation period, the cells were stained for nucleus, PSD-95, and synaptophysin. Expression levels were calculated as the change of percentage in mean fluorescence intensity compared to untreated cells.
(§5) Primary neurons, treated and untreated, were immunostained for MAP-2, synaptophysin, and PSD-95 to determine the synaptic integrity. […] Following a 20 hr incubation period, the cells were stained for MAP-2, PSD-95, and synaptophysin as described above.

PSD-95 = PSD-95 expression in primary hippocampal neurons (immunofluorescence); format: cell-based, rat; conditions: 1 μM, 20 hr
Protocol: as §3, §4, §5

[4] = system: rat primary hippocampal neurons; assay: Neurotoxic effect of Aβ1-42 oligomers, MTT viability assay; format: cell-based; conditions: 20 hr
Protocol: Amylospheroids (ASPDs) and Aβ monomers were prepared following Hoshi, M., et al. (2003) Proc Natl Acad Sci USA 100, 6370-6375, and Noguchi, A., et al. (2009) J Biol Chem 284, 32895-32905. Briefly, Aβ1-42 was dissolved in 1,1,1,3,3,3-hexafluoro-2-propanol and incubated overnight at 4° C. and then 3 hr at 37° C. The dissolved Aβ1-42 was then lyophilized in 1.5 ml polypropylene centrifuge tubes at 40 nmol/tube concentration. For preparing the ASPDs, the lyophilized Aβ was dissolved in phosphate buffered saline (PBS) without Ca^2+ or Mg^2+ at less than 50 μM concentration and rotated for 14 hr at 4° C. After incubation, the Aβ solution was purified using a 100 kDa molecular mass cutoff filter (Amicon Ultra, Millipore) and the high-molecular weight fraction was saved to obtain the most toxic ASPDs. Aβ derived diffusible ligands (ADDLs) were produced as previously described. See Lambert, M. P et al., Proc. Natl. Acad. Sci. USA, 1998, 95: 6448-6453. Briefly, Aβ1-42 was solubilized at 5 mM in dimethyl sulfoxide, diluted to 100 μM in F12k medium and was incubated at 4° C. for 24 hr. The solution was centrifuged at 14000×g for 10 min at 4° C. and the supernatant was used as the ADDLs.
as §1
To assess the neurotoxic effect of different sized oligomers, rat primary hippocampal neurons were treated with variable concentrations of these Aβ1-42 species for 20 hr. Viability of the treated cells was compared to untreated cells using the MTT assay described above.

Row | Compound | viability of ASPD-treated primary neurons [1] | 3H-DCPLA-ME binding, 30 nM competitor ([2]; 30 nM competitor) | 3H-DCPLA-ME binding, 1 μM competitor ([2]; 1 μM competitor) | co-localized staining of PSD-95 and synaptophysin in puncta ([3]; 30 day old neurons) | Immunostaining of PSD-95 and synaptophysin from Western blots ([3]; 40 days) | PKC-ε membrane translocation (PKC-ε) | synaptophysin mean fluorescence intensity (synaptophysin) | PSD-95 expression (PSD-95) | Viability of primary neuron ([4]; 50 nM) | Viability of primary neuron ([4]; 500 nM) | Viability of primary neuron ([4]; 1000 nM (1 μM))
1 | CCC/C=C/C=C/C(=O)O[C@H]1/C(=C/C(=O)OC)C[C@H]2C[C@H]([C@@H](C)O)OC(=O)C[C@H](O)C[C@@H]3C[C@H](OC(C)=O)C(C)(C)[C@](O)(C[C@@H]4C/C(=C/C(=O)OC)C[C@H](/C=C/C(C)(C)[C@]1(O)O2)O4)O3 [Bryostatin 1] | 73.23±3.6% | 100% | 77% | increased co-localized staining | significantly higher | – | – | – | – | – | –
2 | Aβ Monomer: monomeric Aβ1-42 | – | – | – | – | – | did not affect translocation | did not change | did not change | – | – | –
3 | ADDL: Aβ derived diffusible ligands prepared from Aβ1-42, containing 6.5 monomers on average | – | – | – | – | – | 80.82±4.025% | 75.64±4.84 % of control | – | 91.15 ± 1.44 % of control | 79.01 ± 11.32 % of control | 50.98±3.8 % of control and 49.02 ± 7.26 % of control
